Experimental findings from patent US11325900B2, “5-(pyrimidin-4-yl)thiazol-2-yl urea derivatives as therapeutic agents” (AUCENTRA HOLDINGS PTY LTD, priority 2018, dated 2022) are described below.

A word on the GI50: it is the concentration that inhibits growth by half. The low end stands for more potent growth inhibition, the high end for less potent growth inhibition. As usually defined, the IC50 is the point on the concentration scale where inhibition reaches its midpoint.

One assay concerns MV-4-11. Briefly: Cell viability assay (resazurin, leukemia cell lines), 72 h growth inhibition. Type of assay: cell-based. The following applies: Homo sapiens, MV4-11, MV-4-11 cells. The source says:
(§1) Compounds from Example 1 may be subjected to a standard MTT (3-(4,5-dimethylthiazol-2-yl)-2,5-diphenyltetrazolium bromide) and resazurin assays on solid tumour cell lines and leukemia cell lines, respectively, as previously reported (Wang S et al., J Med Chem 47:1662-1675, 2004 and Diab S e al. CheMedChem 9:962-972, 2014). Compound concentrations required to inhibit 50% of cell growth (GI50) can be calculated using non-linear regression analysis.
(In general: Resazurin is reduced to fluorescent resorufin, in cell work by metabolically active cells.)

For another assay, the system named is HCT-116. Briefly: Cell viability assay (MTT, solid tumour cell lines), 72 h growth inhibition. It is filed as cell-based. The following applies: Homo sapiens, HCT-116 cells.
Excerpt: as §1

Another assay deals with T1, CDK8/CycC (Homo sapiens, UniProt P49336).
T1 construct: purchased ProQinase GmbH, Freiburg, Germany
Briefly: Radiometric protein kinase assay (33PanQinase Activity Assay, ProQinase). The following applies: 1.0 μM ATP, 1.0 μg/50 μL substrate RBER-IRStide, duplicate measurements, read-out: CDK8 Kinase inhibition IC50. It is filed as biochemical. How it is done: The kinase activity of CDK8/CycC was measured using a radiometric protein kinase assay (33PanQinase® Activity Assay) by ProQinase GmbH, Freiburg, Germany, with the protocols shown at www.proqinase.com/sites/default/files/public/uploads/WildtypeProfiler/radiometric_assay_v05_2012_manual.pdf. IC50 determination (8.3 nM with 1.0 μM ATP and 1.0 μg/50 μL of substrate RBER-IRStide) was performed as duplicate measurements and calculated using Quattro Workflow V3.1.1 (Quattro Research GmbH, Germany). Apparent inhibition constants (Ki) values were calculated from Km (ATP) and IC50 values for the respective kinases.

T1 sequence (P49336 whole entry): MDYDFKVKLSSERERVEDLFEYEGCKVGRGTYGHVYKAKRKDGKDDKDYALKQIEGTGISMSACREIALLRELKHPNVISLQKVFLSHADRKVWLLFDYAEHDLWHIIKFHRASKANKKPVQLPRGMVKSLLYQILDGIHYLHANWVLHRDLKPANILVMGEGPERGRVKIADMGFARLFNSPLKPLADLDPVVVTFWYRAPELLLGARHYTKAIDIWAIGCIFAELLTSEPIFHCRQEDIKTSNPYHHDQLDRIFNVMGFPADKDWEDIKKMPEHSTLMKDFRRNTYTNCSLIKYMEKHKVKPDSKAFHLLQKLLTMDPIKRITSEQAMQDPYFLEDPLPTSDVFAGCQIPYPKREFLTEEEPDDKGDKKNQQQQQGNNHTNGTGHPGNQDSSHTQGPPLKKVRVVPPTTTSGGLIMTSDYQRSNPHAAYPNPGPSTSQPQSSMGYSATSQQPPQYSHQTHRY
T1 sequence (P24863 whole entry partner): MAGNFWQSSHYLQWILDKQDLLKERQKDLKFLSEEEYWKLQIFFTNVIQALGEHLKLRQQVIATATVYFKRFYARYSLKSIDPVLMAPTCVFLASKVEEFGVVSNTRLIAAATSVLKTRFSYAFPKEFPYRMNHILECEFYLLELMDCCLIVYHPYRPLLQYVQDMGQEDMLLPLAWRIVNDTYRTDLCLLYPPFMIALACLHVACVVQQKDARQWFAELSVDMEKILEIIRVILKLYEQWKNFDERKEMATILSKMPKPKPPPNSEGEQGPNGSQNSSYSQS

In the case of `CNc1nccc(-c2sc(NC(=O)Nc3ccccc3)nc2C)n1` [Compound 1, 1-(4-Methyl-5-(2-(methylamino)pyrimidin-4-yl)thiazol-2-yl)-3-phenylurea], the GI50 was 639 ± 120 nM in the assay with MV-4-11 and 1510 ± 60 nM in the assay on HCT-116. Also, the IC50 at CDK8/CycC worked out at 36 nM.
Consider `CNc1nccc(-c2sc(NC(=O)Nc3cc(C(F)(F)F)ccc3C(F)(F)F)nc2C)n1` [Compound 9, 1-(2,5-Bis(trifluoromethyl)phenyl)-3-(4-methyl-5-(2-(methylamino)-pyrimidin-4-yl)thiazol-2-yl)urea], for which the concentration for 50% growth inhibition (GI50) was 526 ± 40 nM in the assay with MV-4-11 and 519 ± 160 nM in the assay on HCT-116. Moreover, the IC50 on CDK8/CycC turned out to be 41 nM.
For the compound `CNc1nccc(-c2sc(NC(=O)Nc3ccc(C(F)(F)F)c(Cl)c3)nc2C)n1` [Compound 5, 1-(3-Chloro-4-(trifluoromethyl)-phenyl)-3-(4-methyl-5-(2-(methylamino)pyrimidin-4-yl)thiazol-2-yl)urea], the GI50 came to 3810 ± 580 nM in the assay with MV-4-11 and 7100 ± 960 nM in the assay on HCT-116. In addition, at CDK8/CycC, the half-inhibitory concentration (IC50) is 25 nM.
For `CNc1nccc(-c2sc(NC(=O)Nc3ccc(F)c(C(F)(F)F)c3)nc2C)n1` [Compound 25, 1-(4-Fluoro-3-(trifluoromethyl)phenyl)-3-(4-methyl-5-(2-(methylamino)-pyrimidin-4-yl)thiazol-2-yl)urea], the results for the GI50 in the assay on MV-4-11 and in the assay on HCT-116 were 2230 ± 140 nM and 5850 ± 1140 nM, respectively. Moreover, the IC50 at CDK8/CycC came to 13 nM.
With `CNc1nccc(-c2sc(NC(=O)Nc3ccc(CN4CCOCC4)c(Cl)c3)nc2C)n1` [Compound 31, 1-(3-Chloro-4-(morpholinomethyl)phenyl)-3-(4-methyl-5-(2-(methylamino)-pyrimidin-4-yl)thiazol-2-yl)urea], the GI50 in the assay on MV-4-11 came to 945 ± 50 nM; in the assay on HCT-116, 6830 ± 1010 nM. The IC50 on CDK8/CycC is 22 nM.
`CNc1nccc(-c2sc(NC(=O)Nc3cccc(C(C)C)c3)nc2C)n1` [Compound 17, 1-(3-Isopropylphenyl)-3-(4-methyl-5-(2-(methylamino)pyrimidin-4-yl)thiazol-2-yl)urea]: the figures for the GI50 in the assay on MV-4-11 and in the assay with HCT-116 were 3510 ± 790 nM and 5970 ± 723 nM, respectively. Besides, the half-maximal inhibitory concentration (IC50) on CDK8/CycC turned out to be 15 nM.
Consider `CNc1nccc(-c2sc(NC(=O)Nc3cccc(Cl)c3)nc2C)n1` [Compound 11, 1-(3-Chlorophenyl)-3-(4-methyl-5-(2-(methylamino)pyrimidin-4-yl)thiazol-2-yl)urea], for which the results for the GI50 in the assay on MV-4-11 and with HCT-116 were 1480 ± 1320 nM and 693 ± 30 nM, respectively. In addition, the IC50 on CDK8/CycC is 33 nM.
For `CNc1nccc(-c2sc(NC(=O)Nc3ccc(C)c(C(F)(F)F)c3)nc2C)n1` [Compound 26, 1-(4-Methyl-3-(trifluoromethyl)-phenyl)-3-(4-methyl-5-(2-(methylamino)pyrimidin-4-yl)thiazol-2-yl)urea], in that order: 2560 ± 490 nM, 5100 ± 660 nM and 15 nM.
For `CNc1nccc(-c2sc(NC(=O)Nc3cccc(SC(F)(F)F)c3)nc2C)n1` [Compound 22, 1-(4-Methyl-5-(2-(methylamino)-pyrimidin-4-yl)thiazol-2-yl)-3-(3-((trifluoromethyl)thio)phenyl)urea], the 50% growth inhibitory concentration (GI50) in the assay with MV-4-11 is 4630 ± 1560 nM; with HCT-116 it was 4310 ± 750 nM. For the same compound, at CDK8/CycC, the 50% inhibitory concentration (IC50) was 20 nM.
With `CCN1CCN(Cc2ccc(NC(=O)Nc3nc(C)c(-c4ccnc(NC)n4)s3)cc2C(F)(F)F)CC1` [Compound 33, 1-(4-((4-Ethylpiperazin-1-yl)methyl)-3-(trifluoromethyl)phenyl)-3-(4-methyl-5-(2-(methylamino)-pyrimidin-4-yl)thiazol-2-yl)urea], the GI50 is less than 1 nM with MV-4-11 and 457 ± 30 nM in the assay on HCT-116. In addition, the half-maximal inhibitory concentration (IC50) on CDK8/CycC stood at 10 nM.
For `CNc1nccc(-c2sc(NC(=O)Nc3cccc([N+](=O)[O-])c3)nc2C)n1` [Compound 14, 1-(4-Methyl-5-(2-(methylamino)pyrimidin-4-yl)thiazol-2-yl)-3-(3-nitrophenyl)urea], in that order: 585 ± 30 nM, 5080 ± 820 nM and 10 nM.
